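Each compound was tested at five concentrations against cells in 96-well plates for 48 hours. TGI: concentration producing complete growth inhibition.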
Key:
Test in all cases: NCI tumour cell line growth inhibition, 48 h
786-0 renal = system: 786-0 renal
A549 NSCLC = system: A549 NSCLC
ACHN renal = system: ACHN renal
CAKI-1 renal = system: CAKI-1 renal
COLO 205 colon = system: COLO 205 colon
DLD-1 colon = system: DLD-1 colon
DMS 114 small cell lung = system: DMS 114 small cell lung
DMS 273 small cell lung = system: DMS 273 small cell lung
HCC-2998 colon = system: HCC-2998 colon
HCT-116 colon = system: HCT-116 colon
HCT-15 colon = system: HCT-15 colon
HL-60(TB) leukemia = system: HL-60(TB) leukemia
HOP-62 NSCLC = system: HOP-62 NSCLC
HOP-92 NSCLC = system: HOP-92 NSCLC
HT29 colon = system: HT29 colon
IGROV1 ovarian = system: IGROV1 ovarian
K-562 leukemia = system: K-562 leukemia
KM12 colon = system: KM12 colon
KM20L2 colon = system: KM20L2 colon
LXFL 529 NSCLC = system: LXFL 529 NSCLC
M14 melanoma = system: M14 melanoma
M19-MEL melanoma = system: M19-MEL melanoma
MALME-3M melanoma = system: MALME-3M melanoma
MOLT-4 leukemia = system: MOLT-4 leukemia
NCI-H226 lung = system: NCI-H226 lung
NCI-H23 lung = system: NCI-H23 lung
NCI-H460 lung = system: NCI-H460 lung
NCI-H522 lung = system: NCI-H522 lung
OVCAR-3 ovarian = system: OVCAR-3 ovarian
OVCAR-4 ovarian = system: OVCAR-4 ovarian
OVCAR-5 ovarian = system: OVCAR-5 ovarian
OVCAR-8 ovarian = system: OVCAR-8 ovarian
RPMI-8226 leukemia = system: RPMI-8226 leukemia
SF-268 CNS = system: SF-268 CNS
SF-295 CNS = system: SF-295 CNS
SF-539 CNS = system: SF-539 CNS
SK-MEL-2 melanoma = system: SK-MEL-2 melanoma
SK-MEL-28 melanoma = system: SK-MEL-28 melanoma
SK-MEL-5 melanoma = system: SK-MEL-5 melanoma
SNB-19 CNS = system: SNB-19 CNS
SNB-75 CNS = system: SNB-75 CNS
SR leukemia = system: SR leukemia
SW-620 colon = system: SW-620 colon
TK-10 renal = system: TK-10 renal
U251 CNS = system: U251 CNS
UACC-257 melanoma = system: UACC-257 melanoma
UACC-62 melanoma = system: UACC-62 melanoma
UO-31 renal = system: UO-31 renal
A498 renal = system: A498 renal
BT-549 breast = system: BT-549 breast
CCRF-CEM leukemia = system: CCRF-CEM leukemia
DU-145 prostate = system: DU-145 prostate
EKVX NSCLC = system: EKVX NSCLC
HS 578T breast = system: HS 578T breast
LOX IMVI melanoma = system: LOX IMVI melanoma
MCF7 breast = system: MCF7 breast
MDA-MB-231 breast = system: MDA-MB-231 breast
MDA-MB-435 = system: MDA-MB-435
MDA-N = system: MDA-N
NCI/ADR-RES ovarian = system: NCI/ADR-RES ovarian
PC-3 prostate = system: PC-3 prostate
RXF 393 renal = system: RXF 393 renal
SK-OV-3 ovarian = system: SK-OV-3 ovarian
SN12C renal = system: SN12C renal
T-47D breast = system: T-47D breast

`Cc1cc(C=O)c2c(=O)c3c(O)ccc(/C=C/C(C)C)c3oc2c1` gave a TGI (786-0 renal) greater than 100 µM, a TGI (A549 NSCLC) greater than 100 µM and a TGI (ACHN renal) greater than 100 µM. It also gave a TGI (CAKI-1 renal) greater than 100 µM, a TGI (COLO 205 colon) greater than 100 µM and a TGI (DLD-1 colon) greater than 100 µM. The TGI (DMS 114 small cell lung) was greater than 100 µM, the TGI (DMS 273 small cell lung) was greater than 100 µM and the TGI (HCC-2998 colon) was greater than 100 µM. It also gave a TGI (HCT-116 colon) of 48.1 µM, a TGI (HCT-15 colon) of 99.6 µM and a TGI (HL-60(TB) leukemia) of 59.4 µM. For the same molecule, the TGI (HOP-62 NSCLC) was greater than 100 µM, the TGI (HOP-92 NSCLC) was greater than 100 µM and the TGI (HT29 colon) was greater than 100 µM. For the same molecule, the TGI (IGROV1 ovarian) was greater than 100 µM, the TGI (K-562 leukemia) was greater than 100 µM and the TGI (KM12 colon) was greater than 100 µM. It also gave a TGI (KM20L2 colon) greater than 100 µM, a TGI (LXFL 529 NSCLC) greater than 100 µM and a TGI (M14 melanoma) greater than 100 µM. It also gave a TGI (M19-MEL melanoma) greater than 100 µM, a TGI (MALME-3M melanoma) greater than 100 µM and a TGI (MOLT-4 leukemia) of 86.5 µM. The TGI (NCI-H226 lung) was greater than 100 µM, the TGI (NCI-H23 lung) was greater than 100 µM and the TGI (NCI-H460 lung) was greater than 100 µM. For the same molecule, the TGI (NCI-H522 lung) was 74 µM, the TGI (OVCAR-3 ovarian) was greater than 100 µM and the TGI (OVCAR-4 ovarian) was greater than 100 µM. For the same molecule, the TGI (OVCAR-5 ovarian) was greater than 100 µM, the TGI (OVCAR-8 ovarian) was greater than 100 µM and the TGI (RPMI-8226 leukemia) was 58.8 µM. The TGI (SF-268 CNS) was greater than 100 µM, the TGI (SF-295 CNS) was greater than 100 µM and the TGI (SF-539 CNS) was greater than 100 µM. It also gave a TGI (SK-MEL-2 melanoma) greater than 100 µM, a TGI (SK-MEL-28 melanoma) greater than 100 µM and a TGI (SK-MEL-5 melanoma) greater than 100 µM. For the same molecule, the TGI (SNB-19 CNS) was greater than 100 µM, the TGI (SNB-75 CNS) was greater than 100 µM and the TGI (SR leukemia) was 78.2 µM. The TGI (SW-620 colon) was greater than 100 µM, the TGI (TK-10 renal) was greater than 100 µM and the TGI (U251 CNS) was greater than 100 µM. For the same molecule, the TGI (UACC-257 melanoma) was greater than 100 µM, the TGI (UACC-62 melanoma) was greater than 100 µM and the TGI (UO-31 renal) was greater than 100 µM.

Molecule `COc1ccc(NC(=S)c2ccc([N+](=O)[O-])o2)cc1` has a TGI (786-0 renal) of 4.99 µM, a TGI (A498 renal) of 29.1 µM and a TGI (A549 NSCLC) of 11.1 µM. For the same molecule, the TGI (ACHN renal) was 5.42 µM, the TGI (BT-549 breast) was 4.69 µM and the TGI (CAKI-1 renal) was 14.1 µM. For the same molecule, the TGI (CCRF-CEM leukemia) was 8.66 µM, the TGI (COLO 205 colon) was 2.75 µM and the TGI (DU-145 prostate) was 10.2 µM. For the same molecule, the TGI (EKVX NSCLC) was 7.78 µM, the TGI (HCC-2998 colon) was 3 µM and the TGI (HCT-116 colon) was 3.12 µM. It also gave a TGI (HCT-15 colon) of 3.56 µM, a TGI (HL-60(TB) leukemia) of 5.89 µM and a TGI (HOP-62 NSCLC) of 8.26 µM. It also gave a TGI (HOP-92 NSCLC) of 30.6 µM, a TGI (HS 578T breast) greater than 43.1 µM and a TGI (HT29 colon) of 3.7 µM. For the same molecule, the TGI (IGROV1 ovarian) was 8.56 µM, the TGI (K-562 leukemia) was 7.55 µM and the TGI (KM12 colon) was 3.55 µM. The TGI (LOX IMVI melanoma) was 4.33 µM, the TGI (M14 melanoma) was 7.28 µM and the TGI (MALME-3M melanoma) was 7.83 µM. It also gave a TGI (MCF7 breast) of 4.42 µM, a TGI (MDA-MB-231 breast) of 6.35 µM and a TGI (MDA-MB-435) of 5.66 µM. For the same molecule, the TGI (MDA-N) was 6.11 µM, the TGI (MOLT-4 leukemia) was 13.9 µM and the TGI (NCI-H226 lung) was 8.75 µM. It also gave a TGI (NCI-H23 lung) of 5.52 µM, a TGI (NCI-H460 lung) of 5.72 µM and a TGI (NCI-H522 lung) of 2.92 µM. It also gave a TGI (NCI/ADR-RES ovarian) of 12.2 µM, a TGI (OVCAR-3 ovarian) of 4.42 µM and a TGI (OVCAR-4 ovarian) of 3.07 µM. For the same molecule, the TGI (OVCAR-5 ovarian) was 9.53 µM, the TGI (OVCAR-8 ovarian) was 13.1 µM and the TGI (PC-3 prostate) was 2.97 µM. It also gave a TGI (RPMI-8226 leukemia) of 4.72 µM, a TGI (RXF 393 renal) of 5.01 µM and a TGI (SF-268 CNS) of 9.76 µM. For the same molecule, the TGI (SF-295 CNS) was 10.6 µM, the TGI (SF-539 CNS) was 0.549 µM and the TGI (SK-MEL-2 melanoma) was 4.15 µM. For the same molecule, the TGI (SK-MEL-28 melanoma) was 12.5 µM, the TGI (SK-MEL-5 melanoma) was 13.1 µM and the TGI (SK-OV-3 ovarian) was 25.7 µM. The TGI (SN12C renal) was 4.85 µM, the TGI (SNB-19 CNS) was 11.7 µM and the TGI (SNB-75 CNS) was 14.9 µM. The TGI (SR leukemia) was 8.63 µM, the TGI (SW-620 colon) was 2.9 µM and the TGI (T-47D breast) was 17.3 µM. For the same molecule, the TGI (TK-10 renal) was 9.84 µM, the TGI (U251 CNS) was 2.55 µM and the TGI (UACC-257 melanoma) was 7.2 µM. For the same molecule, the TGI (UACC-62 melanoma) was 3.47 µM and the TGI (UO-31 renal) was 5.09 µM.
